Results: the supplement of paper PMC10307832

How the values were obtained:
Test in all cases: relative viability (nuclei count vs DMSO), 5 days (fraction); higher = more cells survive
NCI-H1734 = system: NCI-H1734
Procedure, shortened: (§1)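 Five library-drug doses in √10 steps were combined with a fixed anchor-drug dose, or a single drug was given alone, by pin tool to lung cancer cell lines in 1536-well plates the day after seeding. Nuclei were stained and counted after 5 days. Relative viability is the nuclei count in treated wells over that in vehicle wells, taken as the median of duplicate plates.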

NCI-H1755 = system: NCI-H1755
Procedure, shortened: as §1

PC-14 = system: PC-14
Procedure, shortened: as §1

NCI-H2228 = system: NCI-H2228
Procedure, shortened: as §1

H3255 = system: H3255
Procedure, shortened: as §1

NCI-H1355 = system: NCI-H1355
Procedure, shortened: as §1

NCI-H2342 = system: NCI-H2342
Procedure, shortened: as §1

NCI-H661 = system: NCI-H661
Procedure, shortened: as §1

LK-2 = system: LK-2
Procedure, shortened: as §1

NCI-H2405 = system: NCI-H2405
Procedure, shortened: as §1

NCI-H1650 = system: NCI-H1650
Procedure, shortened: as §1

PC-3 [JPC-3] = system: PC-3 [JPC-3]
Procedure, shortened: as §1

NCI-H520 = system: NCI-H520
Procedure, shortened: as §1

NCI-H1975 = system: NCI-H1975
Procedure, shortened: as §1

CAL-12T = system: CAL-12T
Procedure, shortened: as §1

EKVX = system: EKVX
Procedure, shortened: as §1

NCI-H322M = system: NCI-H322M
Procedure, shortened: as §1

HCC-827 = system: HCC-827
Procedure, shortened: as §1

RERF-LC-KJ = system: RERF-LC-KJ
Procedure, shortened: as §1

LCLC-97TM1 = system: LCLC-97TM1
Procedure, shortened: as §1

HCC-15 = system: HCC-15
Procedure, shortened: as §1

Structure (SMILES): CC(=O)O[C@@]12CO[C@@H]1C[C@H](O)[C@@]1(C)C(=O)[C@H](O)C3=C(C)[C@@H](OC(=O)[C@H](O)[C@@H](NC(=O)OC(C)(C)C)c4ccccc4)C[C@@](O)([C@@H](OC(=O)c4ccccc4)[C@H]21)C3(C)C [Docetaxel] + CC(=O)Nc1cccc(-n2c(=O)n(C3CC3)c(=O)c3c(Nc4ccc(I)cc4F)n(C)c(=O)c(C)c32)c1 [Trametinib] (partner 0.02 µM)
- relative viability (NCI-H1734; first compound 0.0002 µM): 0.615
- relative viability (NCI-H1734; first compound 0.000632 µM): 0.54
- relative viability (NCI-H1734; first compound 0.002 µM): 0.351
- relative viability (NCI-H1734; first compound 0.006325 µM): 0.337
- relative viability (NCI-H1734; first compound 0.02 µM): 0.198
- relative viability (NCI-H1755; first compound 0.0002 µM): 0.766
- relative viability (NCI-H1755; first compound 0.000632 µM): 0.743
- relative viability (NCI-H1755; first compound 0.002 µM): 0.555
- relative viability (NCI-H1755; first compound 0.006325 µM): 0.415
- relative viability (NCI-H1755; first compound 0.02 µM): 0.381
- relative viability (PC-14; first compound 0.0002 µM): 0.648
- relative viability (PC-14; first compound 0.000632 µM): 0.679
- relative viability (PC-14; first compound 0.002 µM): 0.0905
- relative viability (PC-14; first compound 0.006325 µM): 0.0687
- relative viability (PC-14; first compound 0.02 µM): 0.0257
- relative viability (NCI-H2228; first compound 0.0002 µM): 0.529
- relative viability (NCI-H2228; first compound 0.000632 µM): 0.233
- relative viability (NCI-H2228; first compound 0.002 µM): 0.202
- relative viability (NCI-H2228; first compound 0.006325 µM): 0.188
- relative viability (NCI-H2228; first compound 0.02 µM): 0.121
- relative viability (H3255; first compound 0.0002 µM): 0.554
- relative viability (H3255; first compound 0.000632 µM): 0.635
- relative viability (H3255; first compound 0.002 µM): 0.52
- relative viability (H3255; first compound 0.006325 µM): 0.361
- relative viability (H3255; first compound 0.02 µM): 0.303
- relative viability (NCI-H1355; first compound 0.0002 µM): 0.384
- relative viability (NCI-H1355; first compound 0.000632 µM): 0.441
- relative viability (NCI-H1355; first compound 0.002 µM): 0.262
- relative viability (NCI-H1355; first compound 0.006325 µM): 0.26
- relative viability (NCI-H1355; first compound 0.02 µM): 0.183
- relative viability (NCI-H2342; first compound 0.0002 µM): 0.898
- relative viability (NCI-H2342; first compound 0.000632 µM): 0.836
- relative viability (NCI-H2342; first compound 0.002 µM): 0.567
- relative viability (NCI-H2342; first compound 0.006325 µM): 0.672
- relative viability (NCI-H2342; first compound 0.02 µM): 0.483
- relative viability (NCI-H661; first compound 0.0002 µM): 0.53
- relative viability (NCI-H661; first compound 0.000632 µM): 0.611
- relative viability (NCI-H661; first compound 0.002 µM): 0.568
- relative viability (NCI-H661; first compound 0.006325 µM): 0.371
- relative viability (NCI-H661; first compound 0.02 µM): 0.347
- relative viability (LK-2; first compound 0.0002 µM): 0.683
- relative viability (LK-2; first compound 0.000632 µM): 0.528
- relative viability (LK-2; first compound 0.002 µM): 0.304
- relative viability (LK-2; first compound 0.006325 µM): 0.187
- relative viability (LK-2; first compound 0.02 µM): 0.136
- relative viability (NCI-H2405; first compound 0.0002 µM): 0.597
- relative viability (NCI-H2405; first compound 0.000632 µM): 0.618
- relative viability (NCI-H2405; first compound 0.002 µM): 0.531
- relative viability (NCI-H2405; first compound 0.006325 µM): 0.456
- relative viability (NCI-H2405; first compound 0.02 µM): 0.266
- relative viability (NCI-H1650; first compound 0.0002 µM): 0.392
- relative viability (NCI-H1650; first compound 0.000632 µM): 0.4
- relative viability (NCI-H1650; first compound 0.002 µM): 0.217
- relative viability (NCI-H1650; first compound 0.006325 µM): 0.107
- relative viability (PC-3 [JPC-3]; first compound 0.0002 µM): 0.684
- relative viability (PC-3 [JPC-3]; first compound 0.000632 µM): 0.701
- relative viability (PC-3 [JPC-3]; first compound 0.002 µM): 0.604
- relative viability (PC-3 [JPC-3]; first compound 0.006325 µM): 0.431
- relative viability (PC-3 [JPC-3]; first compound 0.02 µM): 0.279
- relative viability (NCI-H520; first compound 0.0002 µM): 0.565
- relative viability (NCI-H520; first compound 0.000632 µM): 0.711
- relative viability (NCI-H520; first compound 0.002 µM): 0.243
- relative viability (NCI-H520; first compound 0.006325 µM): 0.206
- relative viability (NCI-H520; first compound 0.02 µM): 0.119
- relative viability (NCI-H1975; first compound 0.0002 µM): 0.386
- relative viability (NCI-H1975; first compound 0.000632 µM): 0.263
- relative viability (NCI-H1975; first compound 0.002 µM): 0.241
- relative viability (NCI-H1975; first compound 0.006325 µM): 0.167
- relative viability (NCI-H1975; first compound 0.02 µM): 0.148
- relative viability (CAL-12T; first compound 0.0002 µM): 0.294
- relative viability (CAL-12T; first compound 0.000632 µM): 0.267
- relative viability (CAL-12T; first compound 0.002 µM): 0.229
- relative viability (CAL-12T; first compound 0.006325 µM): 0.15
- relative viability (CAL-12T; first compound 0.02 µM): 0.119
- relative viability (EKVX; first compound 0.0002 µM): 0.343
- relative viability (EKVX; first compound 0.000632 µM): 0.358
- relative viability (EKVX; first compound 0.002 µM): 0.185
- relative viability (EKVX; first compound 0.006325 µM): 0.286
- relative viability (EKVX; first compound 0.02 µM): 0.131
- relative viability (NCI-H322M; first compound 0.0002 µM): 0.554
- relative viability (NCI-H322M; first compound 0.000632 µM): 0.507
- relative viability (NCI-H322M; first compound 0.002 µM): 0.441
- relative viability (NCI-H322M; first compound 0.006325 µM): 0.524
- relative viability (NCI-H322M; first compound 0.02 µM): 0.441
- relative viability (HCC-827; first compound 0.0002 µM): 0.545
- relative viability (HCC-827; first compound 0.000632 µM): 0.524
- relative viability (HCC-827; first compound 0.002 µM): 0.376
- relative viability (HCC-827; first compound 0.006325 µM): 0.272
- relative viability (HCC-827; first compound 0.02 µM): 0.189
- relative viability (RERF-LC-KJ; first compound 0.0002 µM): 0.767
- relative viability (RERF-LC-KJ; first compound 0.000632 µM): 0.816
- relative viability (RERF-LC-KJ; first compound 0.002 µM): 0.39
- relative viability (RERF-LC-KJ; first compound 0.006325 µM): 0.217
- relative viability (RERF-LC-KJ; first compound 0.02 µM): 0.142
- relative viability (LCLC-97TM1; first compound 0.0002 µM): 0.171
- relative viability (LCLC-97TM1; first compound 0.000632 µM): 0.195
- relative viability (LCLC-97TM1; first compound 0.002 µM): 0.148
- relative viability (LCLC-97TM1; first compound 0.006325 µM): 0.108
- relative viability (LCLC-97TM1; first compound 0.02 µM): 0.08
- relative viability (HCC-15; first compound 0.0002 µM): 0.401
- relative viability (HCC-15; first compound 0.000632 µM): 0.313
- relative viability (HCC-15; first compound 0.002 µM): 0.193
- relative viability (HCC-15; first compound 0.006325 µM): 0.247
- relative viability (HCC-15; first compound 0.02 µM): 0.159
